Assay results taken from patent US7989464B2, “mGluR1 antagonists as therapeutic agents” (Schering Corporation, priority 2004, dated 2011).

molecular target: T1, hmGluR1 receptor (Homo sapiens, UniProt Q13255); assay: IC50 determination: intracellular calcium mobilization (FLIPR) upon Quisqualate stimulation in CHO cells stably expressing hmGluR1; type: cell-based; details: against Quisqualate 1 μM (EC80), FLIPR calcium mobilization, read-out: IC50 Class
T1 construct: expressed in transfected cells
How it was run: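 CHO cells stably expressing hmGluR1 were kept overnight in DMEM high glucose with GPT and 1 mM pyruvate, then loaded 2 h with Calcium 3 dye.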

T1 sequence (Q13255 19-1194): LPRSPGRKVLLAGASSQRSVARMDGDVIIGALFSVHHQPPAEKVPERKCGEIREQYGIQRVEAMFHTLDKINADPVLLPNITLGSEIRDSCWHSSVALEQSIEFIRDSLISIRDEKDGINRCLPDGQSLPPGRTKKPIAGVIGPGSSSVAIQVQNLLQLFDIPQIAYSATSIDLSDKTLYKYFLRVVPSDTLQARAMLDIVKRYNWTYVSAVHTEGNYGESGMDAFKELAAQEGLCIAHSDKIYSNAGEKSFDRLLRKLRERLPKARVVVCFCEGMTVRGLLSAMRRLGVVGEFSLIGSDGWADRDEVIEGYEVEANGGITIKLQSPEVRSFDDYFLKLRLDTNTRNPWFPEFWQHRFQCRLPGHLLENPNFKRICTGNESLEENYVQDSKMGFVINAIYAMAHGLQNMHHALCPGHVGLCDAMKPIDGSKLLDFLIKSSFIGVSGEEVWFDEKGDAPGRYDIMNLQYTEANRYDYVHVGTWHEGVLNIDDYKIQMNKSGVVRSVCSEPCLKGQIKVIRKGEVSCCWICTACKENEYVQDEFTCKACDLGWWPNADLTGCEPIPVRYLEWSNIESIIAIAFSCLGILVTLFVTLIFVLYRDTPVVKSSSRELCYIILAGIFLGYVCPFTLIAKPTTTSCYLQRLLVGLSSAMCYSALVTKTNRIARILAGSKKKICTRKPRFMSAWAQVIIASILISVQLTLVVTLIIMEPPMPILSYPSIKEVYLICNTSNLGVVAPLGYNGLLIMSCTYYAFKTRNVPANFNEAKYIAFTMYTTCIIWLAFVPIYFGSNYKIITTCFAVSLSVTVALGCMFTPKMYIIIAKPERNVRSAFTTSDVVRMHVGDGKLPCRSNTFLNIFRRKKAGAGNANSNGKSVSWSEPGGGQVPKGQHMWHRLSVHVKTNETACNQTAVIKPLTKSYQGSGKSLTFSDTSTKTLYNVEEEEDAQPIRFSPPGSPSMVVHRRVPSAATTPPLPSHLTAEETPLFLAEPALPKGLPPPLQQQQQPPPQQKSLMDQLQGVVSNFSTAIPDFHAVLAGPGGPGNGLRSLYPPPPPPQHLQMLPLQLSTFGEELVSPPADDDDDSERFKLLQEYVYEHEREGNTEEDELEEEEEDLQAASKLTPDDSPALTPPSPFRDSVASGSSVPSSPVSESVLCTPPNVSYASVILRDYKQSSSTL

Compound | IC50 [nM]
CN(N)c1ccnc2sc3c(=O)n(-c4ccc(Cl)cc4)cnc3c12 [28DM] | > 1000
CON(C)c1ccnc2sc3c(=O)n(-c4ccc(Cl)cc4)cnc3c12 [28DN] | < 50
COc1ccc(-n2cnc3c(sc4nccc(N(C)N)c43)c2=O)cc1 [28DO] | < 50
C#CCNc1ccnc2sc3c(=O)n(-c4ccc(Br)cc4)cnc3c12 [28DP] | < 50
C#CCNc1ccnc2sc3c(=O)n(-c4ccc(OC)cc4)cnc3c12 [28DQ] | < 50
C=CCNc1ccnc2sc3c(=O)n(-c4ccc(Br)cc4)cnc3c12 [28DR] | < 50
C=CCNc1ccnc2sc3c(=O)n(-c4ccc(OC)cc4)cnc3c12 [28DS] | < 50
C=CCNc1ccnc2sc3c(=O)n(-c4ccc(OC)c(F)c4)cnc3c12 [28DT] | < 50
C#CCN(C)c1ccnc2sc3c(=O)n(-c4ccc(OC)cc4)cnc3c12 [28DU] | < 50
C#CCN(C)c1ccnc2sc3c(=O)n(-c4ccc(Br)cc4)cnc3c12 [28DV] | < 50
C#CCNc1ccnc2sc3c(=O)n(-c4ccc(OC)c(F)c4)cnc3c12 [28DW] | < 50
C#CCN(C)c1ccnc2sc3c(=O)n(-c4ccc(Cl)cc4)cnc3c12 [28DX] | < 50
C=CCNc1ccnc2sc3c(=O)n(-c4ccc(Cl)cc4)cnc3c12 [28DY] | 50 to 150
C=CCN(C)c1ccnc2sc3c(=O)n(-c4ccc(Cl)cc4)cnc3c12 [28DZ] | < 50
C=CCN(C)c1ccnc2sc3c(=O)n(-c4ccc(OC)cc4)cnc3c12 [28EA] | < 50
C=CCN(C)c1ccnc2sc3c(=O)n(-c4ccc(Br)cc4)cnc3c12 [28EB] | 50 to 150
C=CCNc1ccnc2sc3c(=O)n(-c4ccc(F)cc4)cnc3c12 [28EC] | < 50
O=c1c2sc3nccc(NC4CC4)c3c2ncn1-c1ccncc1 [28ED] | 150 to 1000
CN(C)c1ccnc2sc3c(=O)n(-c4ccncc4)cnc3c12 [28EE] | 150 to 1000
CNc1ccnc2sc3c(=O)n(-c4ccncc4)cnc3c12 [28EF] | 150 to 1000
CCNc1ccnc2sc3c(=O)n(-c4ccncc4)cnc3c12 [28EG] | 150 to 1000
COc1c(Br)cnc2sc3c(=O)n(-c4ccc(Cl)cc4)cnc3c12 [28EH] | < 50
O=c1c2sc3ncc(Br)c(NC4CC4)c3c2ncn1-c1ccc(Cl)cc1 [28EI] | 150 to 1000

Compound | IC50 [nM]
CN(C)c1ccnc2sc3c(=O)n(C4CCCC(C(=O)O)C4)cnc3c12 (stereo not shown) [28EJ] | > 1000
CCOC(=O)C1CCCC(n2cnc3c(sc4nccc(OC)c43)c2=O)C1 (stereo not shown) [28EK] | > 1000
Cc1noc2cc(F)c(-n3cnc4c(sc5nccc(N(C)C)c54)c3=O)cc12 [28EL] | > 1000
COc1ccccc1CCn1cnc2c(sc3nccc(N(C)C)c32)c1=O [28EM] | > 1000
CN(C)c1ccnc2sc3c(=O)n(CCc4c(Cl)cccc4Cl)cnc3c12 [28EN] | 150 to 1000
Cc1ccc(-n2cnc3c(sc4nccc(NC(C)(C)C)c43)c2=O)cc1 [28EO] | 150 to 1000
CC(C)(C)Nc1ccnc2sc3c(=O)n(-c4ccc(Cl)cc4)cnc3c12 [28EP] | 150 to 1000
Cc1ccc(-n2cnc3c(sc4nccc(NCc5cccs5)c43)c2=O)cc1 [28EQ] | 150 to 1000
Cc1ccc(-n2cnc3c(sc4nccc(NCC(C)(C)C)c43)c2=O)cc1 [28ES] | > 1000
Cc1ccc(-n2cnc3c(sc4nccc(NCC5CCCO5)c43)c2=O)cc1 (stereo not shown) [28ET] | 50 to 150
C#CC(CC)(CC)Nc1ccnc2sc3c(=O)n(-c4ccc(C)cc4)cnc3c12 [28EU] | 150 to 1000
CSCCNc1ccnc2sc3c(=O)n(-c4ccc(C)cc4)cnc3c12 [28EV] | < 50
C=C(C)CNc1ccnc2sc3c(=O)n(-c4ccc(C)cc4)cnc3c12 [28EW] | < 50
Cc1ccc(-n2cnc3c(sc4nccc(NC(C)(C)CO)c43)c2=O)cc1 [28EX] | 50 to 150
C=C(Cl)CNc1ccnc2sc3c(=O)n(-c4ccc(C)cc4)cnc3c12 [28EY] | < 50
C#CC(C)Nc1ccnc2sc3c(=O)n(-c4ccc(C)cc4)cnc3c12 (stereo not shown) [28EZ] | 150 to 1000
C#CC(C)Nc1ccnc2sc3c(=O)n(-c4ccc(OC)cc4)cnc3c12 (stereo not shown) [28FA] | 150 to 1000
C=C(C)CNc1ccnc2sc3c(=O)n(-c4ccc(OC)cc4)cnc3c12 [28FB] | < 50
C=C(C)CNc1ccnc2sc3c(=O)n(-c4ccc(Br)cc4)cnc3c12 [28FC] | < 50
C=C(C)CNc1ccnc2sc3c(=O)n(-c4ccc(Cl)cc4)cnc3c12 [28FD] | < 50
C=C(C)CNc1ccnc2sc3c(=O)n(-c4ccc(OC)c(F)c4)cnc3c12 [28FE] | 50 to 150
C=C(C)CNc1ccnc2sc3c(=O)n(-c4ccc5c(c4)OCCO5)cnc3c12 [28FF] | 150 to 1000
C=C(C)CNc1ccnc2sc3c(=O)n(-c4ccc5c(c4)OCO5)cnc3c12 [28FG] | 150 to 1000

Compound | IC50 [nM]
Nc1ccnc2sc3c(=O)n(-c4ccc(Cl)cc4)cnc3c12 [28FK] | < 50
Cc1ccc(-n2cnc3c(sc4nc(NS(C)(=O)=O)cc(N(C)C)c43)c2=O)cc1 [28FL] | 150 to 1000
Cc1ccc(-n2cnc3c(sc4ncc(Br)c(NCCN)c43)c2=O)cc1 [28FM] | 150 to 1000
Cc1ccc(-n2cnc3c(sc4ncc(Br)c(NCCO)c43)c2=O)cc1 [28FN] | < 50
COc1ccc(-n2cnc3c(sc4nccc(Nc5ccccn5)c43)c2=O)cc1 [28FO] | 150 to 1000
COc1ccc(Nc2ccnc3sc4c(=O)n(-c5ccc(OC)cc5)cnc4c23)cc1 [28FP] | 150 to 1000
CNc1c(C#N)cnc2sc3c(=O)n(-c4ccc(OC)cc4)cnc3c12 [28FQ] | 50 to 150
COc1ccnc2sc3c(=O)n(-c4ccc(Br)cc4)cnc3c12 [28FR] | < 50
COc1ccnc2sc3c(=O)n(-c4ccc(Cl)cc4)cnc3c12 [28FS] | < 50
COc1ccnc2sc3c(=O)n(-c4ccc(Cl)cc4F)cnc3c12 [28FT] | 150 to 1000
COc1ccnc2sc3c(=O)n(-c4ccc(Cl)cc4C)cnc3c12 [28FU] | > 1000
COc1ccnc2sc3c(=O)n(-c4ccc(Cl)cc4Cl)cnc3c12 [28FV] | > 1000
COc1cc(-n2cnc3c(sc4nccc(N(C)C)c43)c2=O)ccc1F [28FW] | 150 to 1000
COc1ccc(-n2cnc3c(sc4nccc(OC)c43)c2=O)cc1F [28FX] | 150 to 1000
COc1ccnc2sc3c(=O)n(-c4ccc5c(c4)OCO5)cnc3c12 [28FY] | > 1000
CCNc1ccnc2sc3c(=O)n(-c4ccc(OC)c(F)c4)cnc3c12 [28FZ] | < 50
O=c1c2sc3nccc(NCCO)c3c2ncn1-c1ccc(Br)cc1 [28GA] | < 50
O=c1c2sc3nccc(NCCO)c3c2ncn1-c1ccc(Cl)cc1 [28GB] | < 50
O=c1c2sc3nccc(NCCO)c3c2ncn1-c1ccc(F)cc1 [28GC] | 50 to 150
O=c1c2sc3nccc(NCCCO)c3c2ncn1-c1ccc(Cl)cc1 [28GD] | < 50
O=c1c2sc3nccc(NCCCCO)c3c2ncn1-c1ccc(Cl)cc1 [28GE] | < 50
O=c1c2sc3nccc(N4CCCC4)c3c2ncn1-c1ccc(Cl)cc1 [28GF] | < 50
NC(=O)CNc1ccnc2sc3c(=O)n(-c4ccc(F)cc4)cnc3c12 [28GG] | 150 to 1000

Compound | IC50 [nM]
O=c1c2sc3nccc(N4CCCCC4)c3c2ncn1-c1ccc(Cl)cc1 [28GH] | > 1000
O=c1c2sc3nccc(N4CCC[C@@H]4CO)c3c2ncn1-c1ccc(Cl)cc1 [28GI] | > 1000
O=c1c2sc3nccc(N4CCC4)c3c2ncn1-c1ccc(Cl)cc1 [28GJ] | 50 to 150
COCCNc1ccnc2sc3c(=O)n(-c4ccc(Cl)cc4)cnc3c12 [28GK] | < 50
COCCNc1ccnc2sc3c(=O)n(-c4ccc(F)cc4)cnc3c12 [28GL] | < 50
O=c1c2sc3nccc(N4CCC[C@H]4CO)c3c2ncn1-c1ccc(Cl)cc1 [28GM] | > 1000
COCCCNc1ccnc2sc3c(=O)n(-c4ccc(Cl)cc4)cnc3c12 [28GN] | < 50
COCCNc1ccnc2sc3c(=O)n(-c4ccc(Br)cc4)cnc3c12 [28GO] | < 50
O=c1c2sc3nccc(NCCCO)c3c2ncn1-c1ccc(F)cc1 [28GP] | < 50
O=c1c2sc3nccc(NCCCO)c3c2ncn1-c1ccc(Br)cc1 [28GQ] | < 50
COCCCNc1ccnc2sc3c(=O)n(-c4ccc(Br)cc4)cnc3c12 [28GR] | < 50
COCCCNc1ccnc2sc3c(=O)n(-c4ccc(F)cc4)cnc3c12 [28GS] | < 50
O=c1c2sc3nccc(N4CCCC4)c3c2ncn1-c1ccc(Br)cc1 [28GT] | 150 to 1000
O=c1c2sc3nccc(NCCCCO)c3c2ncn1-c1ccc(F)cc1 [28GU] | < 50
O=c1c2sc3nccc(NCCCCO)c3c2ncn1-c1ccc(Br)cc1 [28GV] | < 50
O=c1c2sc3nccc(N4CCCC4)c3c2ncn1-c1ccc(F)cc1 [28GW] | 150 to 1000
CC(C)Nc1ccnc2sc3c(=O)n(-c4ccc(F)cc4)cnc3c12 [28GX] | 150 to 1000
O=c1c2sc3nccc(NC4CC4)c3c2ncn1-c1ccc(Br)cc1 [28GY] | < 50
COC[C@H](C)Nc1ccnc2sc3c(=O)n(-c4ccc(Br)cc4)cnc3c12 [28GZ] | > 1000
COCC(C)Nc1ccnc2sc3c(=O)n(-c4ccc(Br)cc4)cnc3c12 (stereo not shown) [28HA] | 150 to 1000
C[C@@H](O)CNc1ccnc2sc3c(=O)n(-c4ccc(Br)cc4)cnc3c12 [28HB] | < 50
CC(CO)Nc1ccnc2sc3c(=O)n(-c4ccc(Br)cc4)cnc3c12 (stereo not shown) [28HC] | 50 to 150
CC(C)Nc1ccnc2sc3c(=O)n(-c4ccc(Br)cc4)cnc3c12 [28HD] | 150 to 1000

same assay, conditions: against Quisqualate 1 μM (EC80), FLIPR calcium mobilization, read-out: mGluR1 IC50

Compound | IC50 [nM]
C#CCNc1ccnc2sc3c(=O)n(-c4ccc(Br)cc4)cnc3c12 [28DP] | 1.75
C=CCNc1ccnc2sc3c(=O)n(-c4ccc(OC)cc4)cnc3c12 [28DS] | 1.95
C#CCN(C)c1ccnc2sc3c(=O)n(-c4ccc(Br)cc4)cnc3c12 [28DV] | 1.87
C=CCN(C)c1ccnc2sc3c(=O)n(-c4ccc(Cl)cc4)cnc3c12 [28DZ] | 1.08
O=c1c2sc3nccc(NCCCO)c3c2ncn1-c1ccc(Cl)cc1 [28GD] | 0.77
O=c1c2sc3nccc(NCCCCO)c3c2ncn1-c1ccc(Cl)cc1 [28GE] | 0.28
O=c1c2sc3nccc(NCCCO)c3c2ncn1-c1ccc(Br)cc1 [28GQ] | 0.66

same assay, conditions: against Quisqualate 1 μM (EC80), class symbols, read-out: mGIuR 1 IC50

Compound | IC50 [nM]
O=c1c2sc3nccc(NC4CCCCC4)c3c2ncn1-c1ccccc1 [28D] | > 1000
COc1ccc(-n2cnc3c(sc4nccc(NC5CCCCC5)c43)c2=O)cc1 [28E] | > 1000
O=c1c2sc3nccc(NC4CCCCC4)c3c2ncn1-c1ccc(OC(F)(F)F)cc1 [28F] | > 1000
COc1ccc(-n2cnc3c(sc4nccc(Nc5ccccc5)c43)c2=O)cc1 [28G] | 150 to 1000
